Measurements published in patent US20240261367A1, “CYCLIC PEPTIDE IMMUNOMODULATORS” (priority 2021, published 2024).

Biological target: T1, PD-1/PD-L1 (Homo sapiens, UniProt Q9NZQ7)
T1 construct: TVMV protease site linker (C); made in house; host or cells: HEK293T cells
Test: PD-1/PD-L1 Homogenous Time-Resolved Fluorescence (HTRF) binding assay
Excerpt: Methods for Testing the Ability of Macrocyclic Peptides to Compete for the Binding of PD-1 to PD-L1 Using Homogenous Time-Resolved Fluorescence (HTRF) Binding Assays
The ability of the compounds of formula (I) to bind to PD-L1 was investigated using a PD-1/PD-L1 Homogenous Time-Resolved Fluorescence (HTRF) binding assay.
Homogenous Time-Resolved Fluorescence (HTRF) Binding Assay
The interaction of PD-1 and PD-L1 can be assessed using soluble, purified preparations of the extracellular domains of the two proteins. The PD-1 and PD-L1 protein extracellular domains were expressed as fusion proteins with detection tags, for PD-1, the tag was the Fc portion of Immunoglobulin (PD-1-Ig) and for PD-L1 it was the 6 histidine motif (PD-L1-His). All binding studies were performed in an HTRF assay buffer consisting of dPBS supplemented with 0.1% […] bovine serum albumin and 0.05% (v/v) Tween-20. […] HTRF detection was achieved using europium crypate-labeled anti-Ig (1 nM final) and allophycocyanin (APC) labeled anti-His (20 nM final). Antibodies were diluted in HTRF detection buffer and 5 μl was dispensed on top of the binding reaction. The reaction mixture was allowed to equilibrate for 30 minutes and the resulting signal (665 nm/620 nm ratio) was obtained using an EnVision fluorometer. Additional binding assays were established between the human proteins PD-1-Ig/PD-L2-His (20 & 5 nM, respectively) and CD80-His/PD-L1-Ig (100 & 10 nM, respectively).
Recombinant Proteins: Human PD-1 (25-167) with a C-terminal human Fc domain of immunoglobulin G (Ig) epitope tag [hPD-1 (25-167)-3S-IG] and human PD-L1 (18-239) with a C-terminal His epitope tag [hPD-L1(18-239)-TVMV-His] were expressed in HEK293T cells and purified sequentially by ProteinA affinity chromatography and size exclusion chromatography. Human PD-L2-His and CD80-His was obtained through commercial sources.
Table 1 lists the IC50 values for representative examples of this disclosure measured in the PD-1/PD-L1 Homogenous Time-Resolved Fluorescence (HTRF) binding assay.

[1] = PD-L1-His (10 nM) pre-incubated with inhibitor 15 m, then PD-1-Ig (20 nM)

T1 sequence (Q9NZQ7 18-239): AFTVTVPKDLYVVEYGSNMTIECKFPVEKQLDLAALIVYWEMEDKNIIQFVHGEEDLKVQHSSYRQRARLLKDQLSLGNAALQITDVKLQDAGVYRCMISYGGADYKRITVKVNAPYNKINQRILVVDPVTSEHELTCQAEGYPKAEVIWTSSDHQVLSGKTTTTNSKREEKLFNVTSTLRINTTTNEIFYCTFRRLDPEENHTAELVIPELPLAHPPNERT

Structure (SMILES)	IC50 [1]	IC50 (10 min incubation)
CCCC[C@H]1C(=O)N(C)[C@@H](CCCC)C(=O)N[C@@H](CC(C)C)C(=O)N[C@H](C(=O)NCC(=O)N[C@@H](Cc2cn(CCOCCOCCOCCOCCOCCOCCOCCOCCOCCOCCOCCNC(=O)CC[C@H](NC(=O)CCCCCCCCCCCCCCCCC(=O)OC)C(=O)OC)nn2)C(=O)O)CSCC(=O)N[C@@H](Cc2ccc(O)cc2)C(=O)N(C)[C@@H](C)C(=O)N[C@@H](CC(N)=O)C(=O)N2CCC[C@H]2C(=O)N[C@@H](CNC(=O)OCc2oc(=O)oc2C)C(=O)N[C@@H](CC(C)C)C(=O)N2C[C@H](O)C[C@H]2C(=O)N[C@@H](Cc2c[nH]c3ccccc23)C(=O)N[C@@H](CCN)C(=O)N[C@@H](Cc2cn(CC(=O)O)c3ccccc23)C(=O)N1C [Example 7004]	6.9 nM	
CCCC[C@H]1C(=O)N(C)[C@@H](CCCC)C(=O)N[C@@H](CC(C)C)C(=O)N[C@H](C(=O)NCC(=O)N[C@@H](Cc2cn(CCOCCOCCOCCOCCOCCOCCOCCOCCOCCOCCOCCNC(=O)CC[C@H](NC(=O)CCCCCCCCCCCCCCCCC(=O)O)C(=O)O)nn2)C(=O)O)CSCC(=O)N[C@@H](Cc2ccc(O)cc2)C(=O)N(C)[C@@H](C)C(=O)N[C@@H](CC(N)=O)C(=O)N2CCC[C@H]2C(=O)N[C@@H](CNC(=O)OCC)C(=O)N[C@@H](CC(C)C)C(=O)N2C[C@H](O)C[C@H]2C(=O)N[C@@H](Cc2c[nH]c3ccccc23)C(=O)N[C@@H](CCN)C(=O)N[C@@H](CC2=CC(CC(=O)O)c3ccccc32)C(=O)N1C (some centres unmarked) [Example 1009]	12 nM	
CCCC[C@H]1C(=O)N(C)[C@@H](CCCC)C(=O)N[C@@H](CC(C)C)C(=O)N[C@H](C(=O)NCC(=O)N[C@@H](Cc2cn(CCOCCOCCOCCOCCOCCOCCOCCOCCOCCOCCOCCNC(=O)CC[C@H](NC(=O)CCCCCCCCCCCCCCCCC(=O)O)C(=O)O)nn2)C(=O)O)CSCC(=O)N[C@@H](Cc2ccc(O)cc2)C(=O)N(C)[C@@H](C)C(=O)N[C@@H](CC(N)=O)C(=O)N2CCC[C@H]2C(=O)N[C@@H](CNC(=O)CC[C@@H](C)[C@H]2CC[C@H]3[C@@H]4[C@H](O)C[C@@H]5C[C@H](O)CC[C@]5(C)[C@H]4C[C@H](O)[C@]23C)C(=O)N[C@@H](CC(C)C)C(=O)N2C[C@H](O)C[C@H]2C(=O)N[C@@H](Cc2c[nH]c3ccccc23)C(=O)N[C@@H](CCN)C(=O)N[C@@H](Cc2cn(CC(=O)O)c3ccccc23)C(=O)N1C [Example 1006]		28 nM
CCCC[C@H]1C(=O)N(C)[C@@H](CCCC)C(=O)N[C@@H](CC(C)C)C(=O)N[C@H](C(=O)NCC(=O)N[C@@H](Cc2cn(CCOCCOCCOCCOCCOCCOCCOCCOCCOCCOCCOCCNC(=O)CC[C@H](NC(=O)CCCCCCCCCCCCCCCCC(=O)O)C(=O)O)nn2)C(=O)O)CSCC(=O)N[C@@H](Cc2ccc(O)cc2)C(=O)N(C)[C@@H](C)C(=O)N[C@@H](CC(N)=O)C(=O)N2CCC[C@H]2C(=O)N[C@@H](CNC(=O)OCc2oc(=O)oc2C)C(=O)N[C@@H](CC(C)C)C(=O)N2C[C@H](O)C[C@H]2C(=O)N[C@@H](Cc2c[nH]c3ccccc23)C(=O)N[C@@H](CCNC(=O)OCC)C(=O)N[C@@H](Cc2cn(CC(=O)O)c3ccccc23)C(=O)N1C [Example 7010]	46 nM	
CCCC[C@H]1C(=O)N(C)[C@@H](CCCC)C(=O)N[C@@H](CC(C)C)C(=O)N[C@H](C(=O)NCC(=O)N[C@@H](Cc2cn(CCOCCOCCOCCOCCOCCOCCOCCOCCOCCOCCOCCNC(=O)CC[C@H](NC(=O)CCCCCCCCCCCCCCCCC(=O)OC)C(=O)O)nn2)C(=O)O)CSCC(=O)N[C@@H](Cc2ccc(O)cc2)C(=O)N(C)[C@@H](C)C(=O)N[C@@H](CC(N)=O)C(=O)N2CCC[C@H]2C(=O)N[C@@H](CNC(=O)OCc2oc(=O)oc2C)C(=O)N[C@@H](CC(C)C)C(=O)N2C[C@H](O)C[C@H]2C(=O)N[C@@H](Cc2c[nH]c3ccccc23)C(=O)N[C@@H](CCN)C(=O)N[C@@H](Cc2cn(CC(=O)O)c3ccccc23)C(=O)N1C [Example 7003]	7.4 nM	
